Reference: article PMC3871636 (PLoS ONE, 2013)

Key:
[1] = target: CYP3A4 (C377/C468 mutant) (Homo sapiens, UniProt P08684, form not given/S18F); assay: Ligand-induced spin shift, absorbance titration; type: binding; conditions: human, purified CYP3A4(C377/C468) mutant protein, pH 7.4; read-out: K D or S 50
Protocol: (§1) All absorbance and fluorescence assays (including the time-resolved fluorescence measurements) were performed at a protein concentration ≤1 µM at 25°C with continuous stirring. Absorbance spectra were recorded with an S2000 rapid scanning CCD spectrometer (Ocean Optics). Ligand binding assays were done in 100 mM Na-Hepes buffer, pH 7.4, containing 0.5 mM EDTA.
(§2) Absorbance spectra obtained in titration experiments were analyzed with a principal component analysis (PCA) procedure complemented with least-square approximation of the principal vectors with a combination of the prototypical spectra of the CYP3A4 low-spin, high-spin and Type II-substrate-bound ferric CYP3A4 P450 states as described, [31].
(§3) When fitting the results of titration experiments, where the changes in the monitored signal A S (fraction of the enzyme in the high-spin state, intensity or the lifetime of the donor phosphorescence at a given substrate concentration) were assumed to be proportional to [ES], this equation was complemented with the offset A 0 and the scaling factor A max to yield the following relationship: [drawing 5] (Eq.5)

[2] = target: CYP3A4 (C64/C468 mutant) (Homo sapiens, UniProt P08684, form not given/S18F); assay: Ligand-induced spin shift, absorbance titration; type: binding; conditions: human, purified CYP3A4(C64/C468) mutant protein, pH 7.4; read-out: K D or S 50
CYP3A4 (C64/C468 mutant), sequence (P08684 13-503 S18F, form open): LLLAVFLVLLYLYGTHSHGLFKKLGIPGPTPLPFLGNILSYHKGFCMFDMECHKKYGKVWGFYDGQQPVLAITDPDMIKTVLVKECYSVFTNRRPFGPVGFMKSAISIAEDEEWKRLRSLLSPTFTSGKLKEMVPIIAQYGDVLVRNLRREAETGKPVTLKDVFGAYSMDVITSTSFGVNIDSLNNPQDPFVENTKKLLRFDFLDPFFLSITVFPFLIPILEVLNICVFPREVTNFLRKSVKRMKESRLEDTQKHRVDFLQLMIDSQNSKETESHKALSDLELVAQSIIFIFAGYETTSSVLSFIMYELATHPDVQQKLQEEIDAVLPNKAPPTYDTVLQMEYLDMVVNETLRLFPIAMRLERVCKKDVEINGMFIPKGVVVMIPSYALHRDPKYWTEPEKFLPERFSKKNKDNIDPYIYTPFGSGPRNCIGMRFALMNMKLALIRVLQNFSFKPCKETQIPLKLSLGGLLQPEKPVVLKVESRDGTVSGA
Protocol: as §1, §2, §3

[3] = target: T1, double-labeled CYP3A4 C64/C121-DY/ER (Homo sapiens, UniProt P08684, A121C/C239S/C377S/C468A/C98S/S18F); assay: Steady-state LRET titration (delayed emission); conditions: Table S2, protein C64/C121-ER/DY; for R (interprobe distance with ligand), steady-state measurements / ΔR, steady-state measurements: same ligand concentrations
T1 sequence (P08684 with tags, fused parts or gaps S18F/C98S/A121C/C239S/C377S/C468A limits assumed): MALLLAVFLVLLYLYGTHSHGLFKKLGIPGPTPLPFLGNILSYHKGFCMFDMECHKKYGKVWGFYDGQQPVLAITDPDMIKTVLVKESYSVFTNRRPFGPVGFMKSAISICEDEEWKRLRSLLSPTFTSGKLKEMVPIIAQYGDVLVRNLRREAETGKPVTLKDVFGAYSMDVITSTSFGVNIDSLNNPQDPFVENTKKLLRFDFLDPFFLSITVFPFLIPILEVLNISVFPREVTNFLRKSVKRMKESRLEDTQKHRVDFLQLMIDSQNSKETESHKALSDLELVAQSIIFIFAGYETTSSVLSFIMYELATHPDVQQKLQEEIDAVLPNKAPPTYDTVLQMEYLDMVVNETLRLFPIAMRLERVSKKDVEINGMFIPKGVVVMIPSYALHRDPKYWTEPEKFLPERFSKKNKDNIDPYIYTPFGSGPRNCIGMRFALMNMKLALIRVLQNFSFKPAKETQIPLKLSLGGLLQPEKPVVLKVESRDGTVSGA
Protocol: as §1
(§4) Fluorescence-based ligand binding assays were done under anaerobic conditions. Anaerobiosis was achieved using an oxygen-scavenging system consisting of protecatechuate-3,4-dioxygenase (0.5 units/ml) and 5 mM protocatechuic acid. The steady state and time-resolved phosphorescence measurements were performed with the use of a Cary Eclipse fluorescence spectrophotometer (Varian/Agilent Technologies). The excitation wavelength was set to 540 nm. Spectra were taken from 650 to 860 nm with 100 µs delay.
(§5) Quantitative interpretation of LRET results was also based on the use of PCA applied to a series of emission spectra normalized on integral intensity. […] Intensity of the donor and acceptor fluorescence obtained in this way were used in determination of the efficiency of steady-state LRET using the equation [drawing 1] (Eq.1) where I ad is emission intensity of the acceptor, I da is the residual donor emission in the presence of acceptor (I da), Φ a and Φ d are the quantum yield of the fluorescence of acceptor and the quantum yield of the phosphorescence of donor, respectively.
(§6) Distances were calculated using the equation: [drawing 3] (Eq.3) where R 0 is the Förster distance, and R is the distance between the donor and acceptor. R 0 was calculated with the use of PhotoChemCad software. In these calculations, we used the values of the orientation factor (κ^2) and the refractive index (n) of 0.667 and 1.4, respectively.
as §3

[4] = target: T1, double-labeled CYP3A4 C64/C121-DY/ER; assay: Time-resolved LRET (phosphorescence lifetime measurements); conditions: for F1 (fraction of first exponential) / τ2 (phosphorescence decay time with ligand) / τav (average phosphorescence lifetime with ligand) / R (interprobe distance with ligand), lifetime measurements / ΔR, lifetime measurements: same ligand concentrations
Protocol: as §1, §4
The treatment of the time-resolved decay traces was performed using a bi-exponential approximation. The efficiency of time-resolved LRET was calculated using the equation [drawing 2] (Eq.2)
In this equation τda and τd designate the average lifetime of the excited state of the donor in the presence and absence of the acceptor, respectively. These average lifetimes are determined as τ = α1τ1+α2τ2, where τ1,2 and α1,2 stay for the lifetime and the relative amplitude of each of the two exponential terms. In our calculations of the lifetime in double-labeled C64/C468, C377/C468 and C64/C121 proteins we used the lifetimes of phosphorescence measured with the respective proteins labeled with ERIA at a label:protein ratio 2∶1 as the estimates of τd.
as §6

[5] = target: T2, double-labeled CYP3A4 C377/C468-DY/ER (Homo sapiens, UniProt P08684, S18F, form not given); assay: as above; conditions: for τ1 (phosphorescence decay time with ligand) / F1 (fraction of first exponential) / τ2 (phosphorescence decay time with ligand) / τav (average phosphorescence lifetime with ligand): Table S1, protein (C377/C468)-ER/DY; for τ1 (phosphorescence decay time with ligand) / E (LRET efficiency with ligand), lifetime measurements: 1-PB 40 µM, ANF 100 µM, BCT 2.5 µM, cholesterol 100 µM, testosterone 100 µM; for τ1 (phosphorescence decay time with ligand): bi-exponential fit; for F1 (fraction of first exponential) / τ2 (phosphorescence decay time with ligand) / τav (average phosphorescence lifetime with ligand) / R (interprobe distance with ligand), lifetime measurements / ΔR, lifetime measurements: same ligand concentrations; for E (LRET efficiency with ligand), lifetime measurements / R (interprobe distance with ligand), lifetime measurements / ΔR, lifetime measurements: Table S2, protein C377/C468-ER/DY
T2 sequence (P08684 13-503 S18F, form open): as the sequence (P08684 13-503 S18F, form open) above
From the text: The excitation wavelength was set to 540 nm.

[6] = target: double-labeled CYP3A4 (C64/C468)-DY/ER (Homo sapiens, UniProt P08684, S18F, form not given); assay: Steady-state LRET titration (delayed emission); type: binding; conditions: for ΔR (change in interprobe distance), steady-state fluorescence / ΔE (change in LRET efficiency), steady-state fluorescence: (C64/C468)-DY/ER; for ΔE (change in LRET efficiency), steady-state fluorescence: from maximal relative change in donor intensity; for E (LRET efficiency with ligand), steady-state measurements / R (interprobe distance with ligand), steady-state measurements / ΔR, steady-state measurements: Table S2, C64/C468-DY/ER; for E (LRET efficiency with ligand), steady-state measurements: 1-PB 40 µM, ANF 100 µM, BCT 2.5 µM, cholesterol 100 µM, testosterone 100 µM; for R (interprobe distance with ligand), steady-state measurements / ΔR, steady-state measurements: same ligand concentrations
double-labeled CYP3A4 (C64/C468)-DY/ER, sequence (P08684 13-503 S18F, form open): as above
Protocol: as §1, §4, §5, §6, §3

[7] = target: CYP3A4 (double-labeled (C64/C468)-DY/ER) (Homo sapiens, UniProt P08684, form not given/S18F); assay: Steady-state LRET titration (delayed emission); type: binding; conditions: human, purified double-labeled CYP3A4 (C64/C468)-DY/ER protein, pH 7.4; (C64/C468)-DY/ER; LRET titration; read-out: K d, steady-state fluorescence
CYP3A4 (double-labeled (C64/C468)-DY/ER), sequence (P08684 13-503 S18F, form open): as above
Protocol: as §1, §4, §5, §6, §3

[8] = target: T2, double-labeled CYP3A4 C377/C468-DY/ER; assay: Steady-state LRET titration (delayed emission); type: binding; conditions: Table S2, protein C377/C468-ER/DY; for E (LRET efficiency with ligand), steady-state measurements: 1-PB 40 µM, ANF 100 µM, BCT 2.5 µM, cholesterol 100 µM, testosterone 100 µM; for R (interprobe distance with ligand), steady-state measurements / ΔR, steady-state measurements: same ligand concentrations
Protocol: as §1, §4, §5, §6, §3

[9] = target: double-labeled CYP3A4 (C64/C468)-ER/DY (Homo sapiens, UniProt P08684, S18F, form not given); assay: Steady-state LRET titration (delayed emission); type: binding; conditions: for ΔR (change in interprobe distance), steady-state fluorescence / ΔE (change in LRET efficiency), steady-state fluorescence: (C64/C468)-ER/DY; for ΔE (change in LRET efficiency), steady-state fluorescence: from maximal relative change in donor intensity; for E (LRET efficiency with ligand), steady-state measurements / R (interprobe distance with ligand), steady-state measurements / ΔR, steady-state measurements: Table S2, C64/C468-ER/DY; for E (LRET efficiency with ligand), steady-state measurements: 1-PB 40 µM, ANF 100 µM, BCT 2.5 µM, cholesterol 100 µM, testosterone 100 µM; for R (interprobe distance with ligand), steady-state measurements / ΔR, steady-state measurements: same ligand concentrations
double-labeled CYP3A4 (C64/C468)-ER/DY, sequence (P08684 13-503 S18F, form open): as above
Protocol: as §1, §4, §5, §6, §3

[10] = Table S1, protein (C64/C121)-ER/DY
[11] = Table S2, protein C64/C121-ER/DY

CYP3A4 (C377/C468 mutant), sequence (P08684 13-503 S18F, form open): as above

| SMILES | Kd [1] [µM] | Kd [2] [µM] | R (interprobe distance with ligand), steady-state measurements [3] [Å] | ΔR, steady-state measurements [3] [Å] | F1 (fraction of first exponential) [4, 10] [%] | τ2 (phosphorescence decay time with ligand) [4, 10] [µs] | τav (average phosphorescence lifetime with ligand) [4, 10] [µs] | R (interprobe distance with ligand), lifetime measurements [4, 11] [Å] | ΔR, lifetime measurements [4, 11] [Å] | τ1 (phosphorescence decay time with ligand) [5] [µs] | F1 (fraction of first exponential) [5] [%] | τ2 (phosphorescence decay time with ligand) [5] [µs] | τav (average phosphorescence lifetime with ligand) [5] [µs] | E (LRET efficiency with ligand), lifetime measurements [5] [%] | R (interprobe distance with ligand), lifetime measurements [5] [Å] | ΔR, lifetime measurements [5] [Å] | ΔR (change in interprobe distance), steady-state fluorescence [6] [Å] | ΔE (change in LRET efficiency), steady-state fluorescence [6] [%] | E (LRET efficiency with ligand), steady-state measurements [6] [%] | R (interprobe distance with ligand), steady-state measurements [6] [Å] | further results |
| --- | --- | --- | --- | --- | --- | --- | --- | --- | --- | --- | --- | --- | --- | --- | --- | --- | --- | --- | --- | --- | --- |
| O=c1cc(-c2ccccc2)oc2c1ccc1ccccc12 [ANF, α-naphthoflavone] | 6.2 ± 1.2 | 5.1 ± 1.5 | 43.4 ± 0.1 | 1.1 ± 0.1 | 43 ± 7 | 232 ± 22 | 159 ± 7 | 36.4 ± 0.5 | 1.3 ± 0.5 | 42 ± 10 | 28 ± 5 | 188 ± 18 | 147 ± 8 | 19 ± 4 | 43.9 ± 2.3 | 7.1 ± 2.3 | 3.9±1.7 | −18±1 | 29 ± 1 | 38.8 ± 1 | ΔR, steady-state measurements [6]: 3.9 ± 1.7 Å; Kd [7]: 9.1 ± 2.9 µM; E (LRET efficiency with ligand), steady-state measurements [8]: 14 ± 0%; R (interprobe distance with ligand), steady-state measurements [8]: 45.2 ± 0.1 Å; ΔR, steady-state measurements [8]: 0.5 ± 0.1 Å; ΔR (change in interprobe distance), steady-state fluorescence [9]: 2.1±0.9 Å; ΔE (change in LRET efficiency), steady-state fluorescence [9]: −8±4%; E (LRET efficiency with ligand), steady-state measurements [9]: 23 ± 2%; R (interprobe distance with ligand), steady-state measurements [9]: 41.2 ± 0.9 Å; ΔR, steady-state measurements [9]: 2.1 ± 0.9 Å |
| OCCCCc1ccc2ccc3cccc4ccc1c2c34 [1-PB, 1-pyrenebutanol] | 14 ± 2 | 5.7 ± 1.7 | 43.4 ± 0.7 | 0.8 ± 0.7 | 35 ± 1 | 199 ± 12 | 149 ± 9 | 35.4 ± 0.8 | 0.4 ± 0.8 | 45 ± 5 | 30 ± 3 | 149 ± 5 | 118 ± 2 | 35 ± 1 | 38.3 ± 0.3 | 1.6 ± 0.3 | 0.9±1.8 | −4±1 | 41 ± 1 | 35.8 ± 1.8 | E (LRET efficiency with ligand), steady-state measurements ([3]; 1-PB 40 µM, ANF 100 µM, BCT 2.5 µM, cholesterol 100 µM, testosterone 100 µM): 18 ± 1%; τ1 (phosphorescence decay time with ligand) ([4]; Table S1, protein (C64/C121)-ER/DY, 1-PB 40 µM, ANF 100 µM, BCT 2.5 µM, cholesterol 100 µM, testosterone 100 µM, bi-exponential fit): 57 ± 1 µs; E (LRET efficiency with ligand), lifetime measurements ([4]; Table S2, protein C64/C121-ER/DY, 1-PB 40 µM, ANF 100 µM, BCT 2.5 µM, cholesterol 100 µM, testosterone 100 µM): 46 ± 5%; ΔR, steady-state measurements [6]: 0.9 ± 1.8 Å; Kd [7]: 22.2 ± 4 µM; E (LRET efficiency with ligand), steady-state measurements [8]: 16± 1%; R (interprobe distance with ligand), steady-state measurements [8]: 44.5 ± 0.7 Å; ΔR, steady-state measurements [8]: −0.2 ± 0.7 Å; ΔR (change in interprobe distance), steady-state fluorescence [9]: −0.3±0.8 Å; ΔE (change in LRET efficiency), steady-state fluorescence [9]: 1±1%; E (LRET efficiency with ligand), steady-state measurements [9]: 30 ± 1%; R (interprobe distance with ligand), steady-state measurements [9]: 38.8 ± 0.8 Å; ΔR, steady-state measurements [9]: −0.3 ± 0.8 Å |
